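48-hour exposure; five concentrations; linearly interpolated endpoints. Here, GI50 denotes the concentration required for 50% inhibition of growth. TGI: concentration producing complete growth inhibition.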
How the values were obtained:
Assay in all cases: DTP human tumour cell line panel, 48 h
OVCAR-5 ovarian = system: OVCAR-5 ovarian
A549 NSCLC = system: A549 NSCLC
NCI-H460 lung = system: NCI-H460 lung
UACC-62 melanoma = system: UACC-62 melanoma
MALME-3M melanoma = system: MALME-3M melanoma
OVCAR-8 ovarian = system: OVCAR-8 ovarian
SK-MEL-2 melanoma = system: SK-MEL-2 melanoma
PC-3 prostate = system: PC-3 prostate
HCT-15 colon = system: HCT-15 colon
SK-OV-3 ovarian = system: SK-OV-3 ovarian
SF-295 CNS = system: SF-295 CNS
HOP-62 NSCLC = system: HOP-62 NSCLC
NCI/ADR-RES ovarian = system: NCI/ADR-RES ovarian
UO-31 renal = system: UO-31 renal
DU-145 prostate = system: DU-145 prostate
SK-MEL-5 melanoma = system: SK-MEL-5 melanoma
A498 renal = system: A498 renal
ACHN renal = system: ACHN renal
OVCAR-3 ovarian = system: OVCAR-3 ovarian
SW-620 colon = system: SW-620 colon
HCC-2998 colon = system: HCC-2998 colon
MDA-MB-435 = system: MDA-MB-435
COLO 205 colon = system: COLO 205 colon
HS 578T breast = system: HS 578T breast
T-47D breast = system: T-47D breast
IGROV1 ovarian = system: IGROV1 ovarian
U251 CNS = system: U251 CNS
LOX IMVI melanoma = system: LOX IMVI melanoma
NCI-H522 lung = system: NCI-H522 lung
SK-MEL-28 melanoma = system: SK-MEL-28 melanoma
KM12 colon = system: KM12 colon
CCRF-CEM leukemia = system: CCRF-CEM leukemia
SN12C renal = system: SN12C renal
SNB-75 CNS = system: SNB-75 CNS
NCI-H226 lung = system: NCI-H226 lung
TK-10 renal = system: TK-10 renal
HL-60(TB) leukemia = system: HL-60(TB) leukemia
K-562 leukemia = system: K-562 leukemia
HCT-116 colon = system: HCT-116 colon
OVCAR-4 ovarian = system: OVCAR-4 ovarian
HT29 colon = system: HT29 colon
SF-268 CNS = system: SF-268 CNS
RPMI-8226 leukemia = system: RPMI-8226 leukemia
HOP-92 NSCLC = system: HOP-92 NSCLC
RXF 393 renal = system: RXF 393 renal
MDA-MB-231 breast = system: MDA-MB-231 breast
786-0 renal = system: 786-0 renal
SNB-19 CNS = system: SNB-19 CNS
MOLT-4 leukemia = system: MOLT-4 leukemia
MCF7 breast = system: MCF7 breast
EKVX NSCLC = system: EKVX NSCLC
NCI-H23 lung = system: NCI-H23 lung
SF-539 CNS = system: SF-539 CNS
M14 melanoma = system: M14 melanoma
UACC-257 melanoma = system: UACC-257 melanoma
SR leukemia = system: SR leukemia
BT-549 breast = system: BT-549 breast

In the case of `CCN1CCC(Oc2c(C#N)ncc3[nH]c4ncccc4c23)CC1`, the GI50 (OVCAR-5 ovarian) was 19.3 µM, the TGI (OVCAR-5 ovarian) was over 50 µM and the GI50 (A549 NSCLC) was 14.1 µM. It also gave a TGI (A549 NSCLC) of over 50 µM, a GI50 (NCI-H460 lung) of 7.33 µM and a TGI (NCI-H460 lung) of over 50 µM. The GI50 (UACC-62 melanoma) was 18.1 µM, the TGI (UACC-62 melanoma) was over 50 µM and the GI50 (MALME-3M melanoma) was 22.9 µM. It also gave a TGI (MALME-3M melanoma) of over 50 µM, a GI50 (OVCAR-8 ovarian) of 4.77 µM and a TGI (OVCAR-8 ovarian) of over 50 µM. For the same compound, the GI50 (SK-MEL-2 melanoma) was 2.48 µM, the TGI (SK-MEL-2 melanoma) was 26.9 µM and the GI50 (PC-3 prostate) was 21 µM. For the same compound, the TGI (PC-3 prostate) was over 50 µM, the GI50 (HCT-15 colon) was 9.35 µM and the TGI (HCT-15 colon) was over 50 µM. It also gave a GI50 (SK-OV-3 ovarian) of 3.99 µM, a TGI (SK-OV-3 ovarian) of over 50 µM and a GI50 (SF-295 CNS) of 2.04 µM. It also gave a TGI (SF-295 CNS) of over 50 µM, a GI50 (HOP-62 NSCLC) of 13.2 µM and a TGI (HOP-62 NSCLC) of over 50 µM. It also gave a GI50 (NCI/ADR-RES ovarian) of 2.78 µM, a TGI (NCI/ADR-RES ovarian) of over 50 µM and a GI50 (UO-31 renal) of 3.94 µM. For the same compound, the TGI (UO-31 renal) was over 50 µM, the GI50 (DU-145 prostate) was 10.9 µM and the TGI (DU-145 prostate) was over 50 µM. The GI50 (SK-MEL-5 melanoma) was 7.12 µM, the TGI (SK-MEL-5 melanoma) was over 50 µM and the GI50 (A498 renal) was 0.296 µM. For the same compound, the TGI (A498 renal) was 10.5 µM, the GI50 (ACHN renal) was 0.466 µM and the TGI (ACHN renal) was over 50 µM. For the same compound, the GI50 (OVCAR-3 ovarian) was 2.55 µM, the TGI (OVCAR-3 ovarian) was over 50 µM and the GI50 (SW-620 colon) was 12.2 µM. For the same compound, the TGI (SW-620 colon) was over 50 µM, the GI50 (HCC-2998 colon) was 20.3 µM and the TGI (HCC-2998 colon) was over 50 µM. The GI50 (MDA-MB-435) was 1.88 µM, the TGI (MDA-MB-435) was over 50 µM and the GI50 (COLO 205 colon) was 5.72 µM. For the same compound, the TGI (COLO 205 colon) was 19.5 µM, the GI50 (HS 578T breast) was 13.1 µM and the TGI (HS 578T breast) was over 50 µM. The GI50 (T-47D breast) was 26 µM, the TGI (T-47D breast) was over 50 µM and the GI50 (IGROV1 ovarian) was 15.6 µM. For the same compound, the TGI (IGROV1 ovarian) was over 50 µM, the GI50 (U251 CNS) was 15.7 µM and the TGI (U251 CNS) was over 50 µM. It also gave a GI50 (LOX IMVI melanoma) of 5.72 µM, a TGI (LOX IMVI melanoma) of over 50 µM and a GI50 (NCI-H522 lung) of 15 µM. The TGI (NCI-H522 lung) was over 50 µM, the GI50 (SK-MEL-28 melanoma) was 16.2 µM and the TGI (SK-MEL-28 melanoma) was over 50 µM. For the same compound, the GI50 (KM12 colon) was 2.83 µM, the TGI (KM12 colon) was over 50 µM and the GI50 (CCRF-CEM leukemia) was 1.84 µM. For the same compound, the TGI (CCRF-CEM leukemia) was over 50 µM, the GI50 (SN12C renal) was 14.2 µM and the TGI (SN12C renal) was over 50 µM. For the same compound, the GI50 (SNB-75 CNS) was 12.9 µM, the TGI (SNB-75 CNS) was 29.8 µM and the GI50 (NCI-H226 lung) was 16.3 µM. For the same compound, the TGI (NCI-H226 lung) was over 50 µM, the GI50 (TK-10 renal) was 5.21 µM and the TGI (TK-10 renal) was 41.7 µM. It also gave a GI50 (HL-60(TB) leukemia) of 2.9 µM, a TGI (HL-60(TB) leukemia) of 17.5 µM and a GI50 (K-562 leukemia) of 1.75 µM. It also gave a TGI (K-562 leukemia) of over 50 µM, a GI50 (HCT-116 colon) of 7.2 µM and a TGI (HCT-116 colon) of over 50 µM. The GI50 (OVCAR-4 ovarian) was 7.88 µM, the TGI (OVCAR-4 ovarian) was over 50 µM and the GI50 (HT29 colon) was 10.2 µM. It also gave a TGI (HT29 colon) of over 50 µM, a GI50 (SF-268 CNS) of 16.2 µM and a TGI (SF-268 CNS) of over 50 µM. For the same compound, the GI50 (RPMI-8226 leukemia) was 11 µM, the TGI (RPMI-8226 leukemia) was over 50 µM and the GI50 (HOP-92 NSCLC) was over 50 µM. For the same compound, the TGI (HOP-92 NSCLC) was over 50 µM, the GI50 (RXF 393 renal) was 0.559 µM and the TGI (RXF 393 renal) was 4.16 µM. For the same compound, the GI50 (MDA-MB-231 breast) was 21.5 µM, the TGI (MDA-MB-231 breast) was over 50 µM and the GI50 (786-0 renal) was 1.71 µM. It also gave a TGI (786-0 renal) of over 50 µM, a GI50 (SNB-19 CNS) of 14.7 µM and a TGI (SNB-19 CNS) of over 50 µM. For the same compound, the GI50 (MOLT-4 leukemia) was 1.67 µM, the TGI (MOLT-4 leukemia) was 21.2 µM and the GI50 (MCF7 breast) was 0.403 µM. The TGI (MCF7 breast) was over 50 µM, the GI50 (EKVX NSCLC) was 14.5 µM and the TGI (EKVX NSCLC) was over 50 µM. The GI50 (NCI-H23 lung) was 3.25 µM, the TGI (NCI-H23 lung) was over 50 µM and the GI50 (SF-539 CNS) was 1.34 µM. For the same compound, the TGI (SF-539 CNS) was 26.2 µM, the GI50 (M14 melanoma) was 0.357 µM and the TGI (M14 melanoma) was over 50 µM. The GI50 (UACC-257 melanoma) was 19.9 µM, the TGI (UACC-257 melanoma) was over 50 µM and the GI50 (SR leukemia) was 1.32 µM. It also gave a TGI (SR leukemia) of 22.3 µM, a GI50 (BT-549 breast) of 1.96 µM and a TGI (BT-549 breast) of 21 µM.
